Test results from PMC9103758 (International Journal of Molecular Sciences, 2022).
“Also recorded” adds a separate entry of the source.

Columns and labels:
[1] = target: T1, human ANO2 (Homo sapiens, UniProt Q9NQ90); experiment: YFP fluorescence quenching assay in FRT cells expressing human ANO2; format: cell-based; settings: 30 μM, ANO2 activated by 100 μM ATP
T1 construct: expressed in transfected cells; host or cells: Fisher rat thyroid (FRT) cells
T1 sequence (Q9NQ90 1-998): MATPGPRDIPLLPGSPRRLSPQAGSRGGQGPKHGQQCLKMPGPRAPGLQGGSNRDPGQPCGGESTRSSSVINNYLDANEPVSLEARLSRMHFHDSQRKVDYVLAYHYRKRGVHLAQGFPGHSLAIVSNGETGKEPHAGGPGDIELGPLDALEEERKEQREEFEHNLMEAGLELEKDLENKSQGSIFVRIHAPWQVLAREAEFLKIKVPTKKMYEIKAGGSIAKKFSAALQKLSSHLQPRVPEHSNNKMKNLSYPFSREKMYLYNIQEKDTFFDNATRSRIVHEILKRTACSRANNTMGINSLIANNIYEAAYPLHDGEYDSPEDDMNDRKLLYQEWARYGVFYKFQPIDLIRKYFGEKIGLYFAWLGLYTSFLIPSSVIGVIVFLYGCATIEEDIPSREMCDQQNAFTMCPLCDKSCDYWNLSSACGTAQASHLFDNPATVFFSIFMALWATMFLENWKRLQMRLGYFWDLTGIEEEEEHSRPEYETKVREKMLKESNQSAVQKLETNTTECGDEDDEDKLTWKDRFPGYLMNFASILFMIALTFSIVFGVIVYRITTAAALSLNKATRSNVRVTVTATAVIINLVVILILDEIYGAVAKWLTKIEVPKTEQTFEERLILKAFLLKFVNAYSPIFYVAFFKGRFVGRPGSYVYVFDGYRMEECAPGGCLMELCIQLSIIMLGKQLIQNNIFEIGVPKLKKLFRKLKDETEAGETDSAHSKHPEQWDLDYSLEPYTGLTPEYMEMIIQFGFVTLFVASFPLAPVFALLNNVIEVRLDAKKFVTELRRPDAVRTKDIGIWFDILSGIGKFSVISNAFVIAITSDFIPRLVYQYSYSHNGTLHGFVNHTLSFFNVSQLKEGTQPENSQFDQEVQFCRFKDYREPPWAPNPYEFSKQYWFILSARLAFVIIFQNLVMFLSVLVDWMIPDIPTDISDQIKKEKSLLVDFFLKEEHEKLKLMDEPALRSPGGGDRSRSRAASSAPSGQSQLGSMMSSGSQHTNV
Procedure: ANO2 activity was measured using YFP fluorescence quenching assay in FRT cells expressing human ANO2.

[2] = system: NIH-3T3 cells; experiment: Cell viability (MTS/MTT) in NIH-3T3 cells; format: cell-based; settings: 24 h, up to/at 30 μM
Procedure: […]. (A) Structure of VI-116. (B) Representative YFP fluorescence traces. The inhibitory effects of VI-116 on VRAC activity were determined using YFP fluorescence assay in LN215 cells. VRAC was activated by application of […] solution for 5 min. (C) Summary of VRAC dose-response (mean ± S.E., n = 4). (D) Summary of VRAC dose−response with 10% FBS (mean ± S.E., n = 4). […].
NIH-3T3 cells were plated on 96-well microplates. After 24 h incubation, cells were treated with VI-116 or DCPIB and incubated for 24 h. The culture medium and the compounds were changed every 12 h. To assess cell proliferation, the cells were incubated with MTS for 1 h. The soluble formazan produced by the cellular reduction of MTS was quantified by measuring the absorbance at 490 nm with an Infinite M200 (Tecan, Grödig, Austria) microplate reader. MTS assay was performed using a CellTiter 96 Aqueous One Solution Cell Proliferation Assay kit (Promega, Madison, WI, USA).

[3] = system: ATP-induced intracellular calcium signaling in FRT cells; experiment: Intracellular calcium measurement (Fluo-4) in FRT cells; format: cell-based, rat; settings: dose-dependent, 100 μM ATP
Procedure: (§1) (A) Representative Fluo4 fluorescence traces from 3 independent experiments in FRT cells. […] (B,C) Representative apical membrane currents from 3–4 independent experiments in FRT cells expressing human ANO1. […] (D) Representative YFP fluorescence traces in FRT cells expressing human ANO2. […] (E) Representative Fluo4 fluorescence traces from 3 independent experiments in FRT cells. Cells were pretreated with DCPIB for 10 min followed by application of 100 μM ATP. (F) Representative apical membrane currents in FRT cells expressing human ANO1.
FRT cells were plated on 96-well black-walled microplates and loaded with Fluo-4 NW according to the manufacturer’s protocol (Invitrogen, Carlsbad, CA, USA). […] The 96-well plates were transferred to a plate reader for fluorescence assay.

[4] = target: T2, ANO1 (Homo sapiens, UniProt Q5XXA6, DEL476-501); experiment: Apical membrane current of ANO1 in FRT cells expressing human ANO1; format: cell-based; settings: 3 μM Eact
T2 construct: expressed in transfected cells; host or cells: Fisher rat thyroid (FRT) cells; The YFP assay uses FRT-ANO1-YFP cells, which also carry the halide sensor
T2 sequence (Q5XXA6 with tags, fused parts or gaps isoform Q5XXA6-5 DEL539-564): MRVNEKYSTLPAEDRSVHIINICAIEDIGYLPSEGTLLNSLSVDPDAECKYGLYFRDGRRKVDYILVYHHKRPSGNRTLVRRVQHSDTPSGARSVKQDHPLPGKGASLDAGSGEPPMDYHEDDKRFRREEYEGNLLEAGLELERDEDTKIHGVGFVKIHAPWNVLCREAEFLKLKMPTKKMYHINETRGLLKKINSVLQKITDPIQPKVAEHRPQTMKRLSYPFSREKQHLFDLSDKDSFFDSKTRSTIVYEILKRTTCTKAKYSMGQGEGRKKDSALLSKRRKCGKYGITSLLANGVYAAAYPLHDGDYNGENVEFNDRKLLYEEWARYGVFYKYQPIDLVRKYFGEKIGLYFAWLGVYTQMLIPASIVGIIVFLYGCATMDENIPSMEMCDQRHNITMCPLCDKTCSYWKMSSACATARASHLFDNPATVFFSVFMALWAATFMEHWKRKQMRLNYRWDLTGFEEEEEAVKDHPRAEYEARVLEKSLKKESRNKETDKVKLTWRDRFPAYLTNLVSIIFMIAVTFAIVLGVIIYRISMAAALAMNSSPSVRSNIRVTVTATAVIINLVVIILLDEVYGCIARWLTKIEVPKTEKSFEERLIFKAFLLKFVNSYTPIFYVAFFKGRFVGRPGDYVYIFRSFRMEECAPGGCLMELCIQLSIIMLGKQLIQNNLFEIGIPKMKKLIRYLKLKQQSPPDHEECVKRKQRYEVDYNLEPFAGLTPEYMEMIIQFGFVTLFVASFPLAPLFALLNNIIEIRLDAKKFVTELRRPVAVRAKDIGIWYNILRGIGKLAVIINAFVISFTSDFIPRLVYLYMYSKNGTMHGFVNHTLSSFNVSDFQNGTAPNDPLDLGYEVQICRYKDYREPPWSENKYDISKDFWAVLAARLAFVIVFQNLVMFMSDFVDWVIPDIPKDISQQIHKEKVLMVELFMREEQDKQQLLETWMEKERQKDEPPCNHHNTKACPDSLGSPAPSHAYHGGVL
Procedure: as §1
(§2) Snapwell inserts containing ANO1(abc) or CFTR-expressing FRT cells were mounted in Ussing chambers (Physiological Instruments, San Diego, CA). The basolateral hemichamber was filled with buffer solution (in mM): 120 NaCl, 5 KCl, 1 MgCl2, 1 CaCl2, 10 D-glucose, 2.5 HEPES, and 25 NaHCO3 (pH 7.4). The apical hemichamber was filled with buffer solution (in mM): 60 NaCl, 60 Na-gluconate, 5 KCl, 1 MgCl2, 1 CaCl2, 10 D-glucose, 2.5 HEPES, and 25 NaHCO3 (pH 7.4). FRT cells were bathed for a 10 min stabilization period and gassed with 5% CO2 and 95% O2 at 37 °C. The apical membrane current was recorded with an EVC4000 Multi-Channel V/I Clamp (World Precision Instruments, Sarasota, FL, USA) and a PowerLab 4/35 (AD Instruments, Castle Hill, Australia).

[5] = target: T3, human CFTR (Homo sapiens, UniProt P13569); experiment: Apical membrane current of CFTR in FRT cells expressing human CFTR; format: cell-based; settings: apical membrane current, FRT cells expressing human CFTR, 20 μM forskolin, n = 5; read-out: CFTR chloride channel IC50
T3 construct: expressed in transfected cells; host or cells: Fisher rat thyroid (FRT) cells
From the text: […]. (C) Summary of dose-response (mean ± S.E., n = 5). […]. (F) Summary of dose−response (mean ± S.E., n = 6).
as §2

[6] = target: T4, hERG K+ channel (Homo sapiens, UniProt Q12809); experiment: FluxOR thallium flux assay in HEK293T cells expressing hERG; format: cell-based
T4 construct: expressed in transfected cells; called HEK293
Procedure: (C) Summary of dose-response (mean ± S.E., n = 5). […] (F) Summary of dose−response (mean ± S.E., n = 6).
HEK293 cells stably expressing human Kv11.1 (hERG) were cultured in 96-well plates. After 48 h, the cells were incubated at 28 °C for 4 h to increase the membrane expression of hERG. The culture medium was replaced with a 80 μL/well of FluxOR (Invitrogen, Waltham, MA, USA) loading buffer and incubated for 1 h at 37 °C in the dark. After removing the loading buffer, 100 μL of assay buffer was added to each well. […] FluxOR fluorescence (excitation/emission: 490/525 nm) was recorded for 4 s before the addition of 20 μL of stimulus buffer containing thallium ions, and the fluorescence was recorded. FluxOR fluorescence was recorded and analyzed using the FLUOstar Omega microplate reader (BMG Labtech, Ortenberg, Germany) and the MARS Data Analysis Software (BMG Labtech, Ortenberg, Germany). All buffers were prepared according to the manufacturer’s instructions.

[7] = system: hERG; settings: 10 μM, Xenopus oocytes overexpressed with hERG; cited from earlier work
[8] = system: calcium-activated chloride currents in calf pulmonary artery endothelial (CPAE) cells; settings: cited from earlier work

T4 sequence (Q12809 whole entry): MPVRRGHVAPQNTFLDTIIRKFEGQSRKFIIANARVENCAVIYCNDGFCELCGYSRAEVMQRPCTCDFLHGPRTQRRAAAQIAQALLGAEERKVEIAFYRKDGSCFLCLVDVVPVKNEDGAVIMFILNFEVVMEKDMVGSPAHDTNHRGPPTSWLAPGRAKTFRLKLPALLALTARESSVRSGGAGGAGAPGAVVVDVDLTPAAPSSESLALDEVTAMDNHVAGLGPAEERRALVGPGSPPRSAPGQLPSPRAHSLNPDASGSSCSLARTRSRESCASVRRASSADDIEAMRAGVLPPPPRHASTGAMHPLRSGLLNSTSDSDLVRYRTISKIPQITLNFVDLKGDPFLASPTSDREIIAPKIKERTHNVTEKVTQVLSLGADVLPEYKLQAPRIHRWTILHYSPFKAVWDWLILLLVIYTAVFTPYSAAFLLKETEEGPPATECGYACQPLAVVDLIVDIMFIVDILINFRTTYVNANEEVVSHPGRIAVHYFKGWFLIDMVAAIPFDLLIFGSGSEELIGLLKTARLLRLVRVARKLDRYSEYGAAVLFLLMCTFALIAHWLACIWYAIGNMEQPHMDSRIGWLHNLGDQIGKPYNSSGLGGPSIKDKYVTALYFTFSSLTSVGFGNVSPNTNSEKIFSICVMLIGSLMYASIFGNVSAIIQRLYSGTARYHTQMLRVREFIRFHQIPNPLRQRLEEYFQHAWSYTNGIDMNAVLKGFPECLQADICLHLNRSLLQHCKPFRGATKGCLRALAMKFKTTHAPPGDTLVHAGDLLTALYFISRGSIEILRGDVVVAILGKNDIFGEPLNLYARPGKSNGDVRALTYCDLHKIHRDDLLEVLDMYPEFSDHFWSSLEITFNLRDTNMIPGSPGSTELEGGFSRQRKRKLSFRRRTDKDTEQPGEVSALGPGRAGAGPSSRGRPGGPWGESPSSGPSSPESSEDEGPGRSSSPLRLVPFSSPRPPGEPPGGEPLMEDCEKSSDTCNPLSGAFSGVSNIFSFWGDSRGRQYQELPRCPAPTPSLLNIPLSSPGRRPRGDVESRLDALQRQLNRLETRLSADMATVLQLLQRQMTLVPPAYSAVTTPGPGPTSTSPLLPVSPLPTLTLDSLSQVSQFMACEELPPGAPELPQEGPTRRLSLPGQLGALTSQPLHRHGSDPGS
T3 sequence (P13569 whole entry): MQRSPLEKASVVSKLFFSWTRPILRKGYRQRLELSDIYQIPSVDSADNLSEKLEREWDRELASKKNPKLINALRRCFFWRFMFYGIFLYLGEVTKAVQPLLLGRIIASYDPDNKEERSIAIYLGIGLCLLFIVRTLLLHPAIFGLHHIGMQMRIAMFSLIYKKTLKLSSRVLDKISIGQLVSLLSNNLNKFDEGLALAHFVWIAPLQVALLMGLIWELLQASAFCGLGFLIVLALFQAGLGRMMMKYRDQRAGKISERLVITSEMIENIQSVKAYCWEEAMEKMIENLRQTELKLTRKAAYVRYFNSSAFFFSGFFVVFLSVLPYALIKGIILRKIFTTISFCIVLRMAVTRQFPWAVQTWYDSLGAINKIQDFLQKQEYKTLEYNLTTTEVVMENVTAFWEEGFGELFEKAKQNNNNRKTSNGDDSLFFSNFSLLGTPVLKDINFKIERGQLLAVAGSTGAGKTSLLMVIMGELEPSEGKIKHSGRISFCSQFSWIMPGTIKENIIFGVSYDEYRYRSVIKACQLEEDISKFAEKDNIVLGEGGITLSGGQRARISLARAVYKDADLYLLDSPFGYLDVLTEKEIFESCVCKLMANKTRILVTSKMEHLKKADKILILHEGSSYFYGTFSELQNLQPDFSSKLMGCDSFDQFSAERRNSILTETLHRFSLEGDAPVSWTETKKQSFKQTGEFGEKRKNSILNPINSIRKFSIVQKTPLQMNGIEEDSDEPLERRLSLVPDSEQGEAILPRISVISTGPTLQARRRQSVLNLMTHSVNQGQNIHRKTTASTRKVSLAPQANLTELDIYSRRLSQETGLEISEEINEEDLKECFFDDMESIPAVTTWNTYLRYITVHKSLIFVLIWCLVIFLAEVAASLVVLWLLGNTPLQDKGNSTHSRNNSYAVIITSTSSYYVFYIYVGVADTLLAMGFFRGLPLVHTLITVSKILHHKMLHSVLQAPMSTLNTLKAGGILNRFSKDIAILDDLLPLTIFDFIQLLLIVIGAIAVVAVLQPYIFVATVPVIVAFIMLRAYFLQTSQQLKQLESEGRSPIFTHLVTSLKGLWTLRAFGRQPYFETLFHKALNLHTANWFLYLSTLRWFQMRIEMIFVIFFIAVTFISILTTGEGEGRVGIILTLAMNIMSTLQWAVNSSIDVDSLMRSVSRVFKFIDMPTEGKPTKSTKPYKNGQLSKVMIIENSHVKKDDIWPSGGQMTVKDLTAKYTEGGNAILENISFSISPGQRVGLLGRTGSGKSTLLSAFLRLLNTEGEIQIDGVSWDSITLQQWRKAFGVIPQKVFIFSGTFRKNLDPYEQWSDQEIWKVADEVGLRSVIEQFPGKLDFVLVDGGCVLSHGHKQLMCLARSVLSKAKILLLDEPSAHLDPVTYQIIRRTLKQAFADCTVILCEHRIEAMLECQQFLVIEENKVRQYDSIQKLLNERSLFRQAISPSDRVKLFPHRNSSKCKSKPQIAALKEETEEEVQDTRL

Compound | block of ANO2 [1] | effect on cell viability [2] | effect on ATP-induced intracellular calcium increase [3] | effect on Eact-activated ANO1 chloride current ([4]; 10 μM) | effect on Eact-activated ANO1 chloride current ([4]; 100 μM) | IC50 [5] [µM] | effect on hERG K+ channel activity ([6]; 10 μM) | IC50 ([6]; thallium flux, HEK293T cells expressing hERG, n = 6) [µM] | effect on hERG [7] | effect on calcium-activated chloride currents [8]
CCc1c(C)nc(SCC(=O)Nc2nc(-c3ccc(OC)cc3)cs2)[nH]c1=O [T16Ainh-A01, reference compound] | completely blocked | – | – | – | – | – | – | – | – | –
CCCCC1(C2CCCC2)Cc2cc(OCCCC(=O)O)c(Cl)c(Cl)c2C1=O (stereo not shown) [DCPIB, 4-(2-butyl-6,7-dichlor-2-cyclopentylindan-1-on-5-yl) oxobutyric acid] | – | significantly reduced cell viability | significantly affected; also recorded: strongly blocked; also recorded: potently blocked; also recorded: potently inhibited | increased | almost completely inhibited | 71.7 | significantly blocked | 11.4 | did not inhibit | did not affect
